Assay [1] concerns the target calcium-sensing receptor (CaR) (Homo sapiens, UniProt P41180). As to conditions: cited from earlier work.
Assay [2] relates to monocytes (Mac-1 positive mononuclear cells). Nature of the assay: Biologic activity in vivo: subcutaneous injection, monocyte infiltration at injection site. The arrangement: species or system C57BL/6 mice. The note with it: tissue excised 18 hours later, CaCl2 5.0 mM, NPS R-467 10 μM. The method, then: Biologic activity of ionic calcium in vivo. C57BL/6 mice (Jackson Laboratories) were injected subcutaneously at a marked, shaved spot on the abdomen with 20 μl of 5 mM CaCl2 or 20 μl of MCP-1 at a concentration of 10 ng/ml, with a combination of MCP-1 and 5 mM CaCl2 or with 10 μM NPS R-467 in PBS. Control mice were injected subcutaneously with 20 μl PBS alone. All subcutaneously injected agents contained less than 0.004 ng/ml of LPS by the limulus assay (Sigma) as previously described (Bleul, C. C., et al., J Exp Med, 1996, 184:1101-1109). Mice were sacrificed by CO2 asphyxiation 18 hours after injection, and injection sites were excised, snap-frozen and 4 μm cryosections were obtained and stained with hematoxylin and eosin. Immunocytochemistry was performed on the frozen sections using alkaline phosphatase-conjugated Mac-1 antibody (Pharmingen) as previously described and assessed by light microscopy (Bleul, C. C., et al., supra).

Assay [3] relates to CD4. The note with it: varying Ca^++ concentration. The method, then:
(§1) Chemokine receptor expression and flow cytometric analysis. Purified monocytes were incubated in a Ca^++-free medium supplemented with 1 mM, 3 mM or 5 mM CaCl2 or with 1.5 mM CaCl2 plus 1 μM NPS R-467 or S-467. Cells were washed once in PBS with 1% FCS and resuspended in 100 μl of Ca^++-free PBS. Monoclonal antibody against the CaR was added to the cells and incubated alone or with the CaR peptide for 30 min at room temperature. Cells were washed with PBS containing 1% FCS, resuspended in PBS with 1% FCS and incubated for 15 min at room temperature with anti-mouse IgG conjugated to FITC. The cells were washed again and conjugated monoclonal antibody [anti-CXCR4, anti-CCR5 (Pharmingen, San Diego, Calif.); anti-CCR2 (R&D, Minneapolis, Minn.); anti-CD14 (Becton Dickinson, San Jose, Calif.); or anti-CD4 (Becton Dickinson, San Jose, Calif.)] was added and incubated for 15 min at room temperature. Stained cells were fixed with 1% paraformaldehyde and assayed within 24 hrs. Flow cytometric analysis was performed using a dual laser FACSCalibur (Becton Dickinson Immunocytometry Systems, San Jose, Calif.) calibrated using 2 μm Calibrite beads (Becton Dickinson). Data acquisition and analysis were performed using CellQuest software (Becton Dickinson).

Assay [4] relates to CXCR-4. As to conditions: elevated Ca^++. The method, then: as §1
Assay [5] deals with CCR-5. As to conditions: elevated Ca^++. As to the method:
as §1

Assay [6] has as its system mononuclear cells derived from neonatal CaR −/−, +/− or +/+ mice. Briefly: Transmigration assay with cells from CaR knockout and wild-type mice. The format is cell-based, mouse. As to conditions: CaR −/− cells. As to the method:
(§2) Transmigration assays. Transwells (5 μm pore size polycarbonate membrane, 12 mm diameter) (Costar, Corning, N.Y.) were used to assess cell migration using an established methodology (25). The concentration of Ca^++ in IMDM (CellGro, Herndon, Va.) in the upper and lower chambers of the transwell were adjusted according to a checkerboard analysis of chemotaxis. Calcium concentrations varied from 0 mM to 6.5 mM. Purified monocytes (1×10^4) were then placed in the top chamber with 150 μl of IMDM (CellGro, Hemdon, Va.). 500 μl of the medium was added to the bottom of the well and supplemented with varying concentrations of Ca^++ or with Ca^++ plus 10 ng/ml of MCP-1, 100 ng/ml of SDF-1α or 10 ng/ml of MIP-1α (PeproTech, Rocky Hills, N.Y.). Cells were incubated at 37° C. for 3 hours. To study inhibition of chemotaxis, cells were subsequently incubated with wortmannin (1 μM for 20 minutes at 37° C.), herbimycin (1 μM for 20 minutes at 37° C.) or genistein (1 μg/ml for 20 minutes at 37° C.), before their use in transmigration assays. At the end of the experiment, cells were then harvested from the lower chamber and counted using a hemocytometer.
CaR−/− were bred as previously described (Ho, C., et al., Nat Genet 1995, 11:389-94). To produce CaR−/− mice for this study, heterozygote mice were intercrossed. The mice studied were either 129S6/svev or 129S6/svev/Swiss Webster mixed genetic background. […]

For assay [7], the system named is CCR-2. Briefly: Chemokine receptor expression on monocytes by flow cytometry: CCR-2. The format is cell-based, human. As to the method: Chemokine receptor expression and flow cytometric analysis.
Table 1: Exposure of CD14^+ monocytes to Ca^++ enhances CCR2 expression in a dose dependent manner. Monocytes were exposed to varying concentrations of Ca^++ and to the selective CaR activator, NPS R-467 (1 μM), or to NPS S-467 (1 μM) in the presence of 1.5 mM Ca^++. The median fluorescence intensity for CCR2 expression was measured for each Ca^++ concentration and in the presence of NPS R-467 or S-467. Mean values +/−s.e.m. from three independent experiments are shown.

The test system of assay [8] is CD14^+ monocytes. Nature of the assay: Transmigration assay (monocyte chemotaxis, transwell). The format is cell-based, human. As to the method:
Preparation of peripheral blood CD14^+ monocytes. Low density cells were isolated from human and mouse peripheral blood using Ficoll-Hypaque (Pharmacia, Piscataway, N.J.). CD14^+ monocytes were purified by sorting on FACSVantage (Becton Dickinson, San Jose, Calif.) based on CD14 expression. Purified cells were incubated in either calcium-free medium (Hanks' Balanced Salt Solution 1×, CellGro, Hermdon. VA) or Iscove's Medium 1×(Mod) (CellGro, Herndon, Va.) which contains 1.5 mM Ca++. […] Cells were incubated for up to 24 hours in 5% CO2 humidified air. Monocytes were then detached from the plate using a cell scraper. All calcium concentrations indicated in the presentation of the data represent the total Ca^++ present in the basal medium plus any added Ca^++.
as §2

Where “and” joins values, the source holds several entries; their conditions need not be identical. Equal entries are not always repeated.

calcium-sensing receptor (CaR), sequence (P41180 20-1078): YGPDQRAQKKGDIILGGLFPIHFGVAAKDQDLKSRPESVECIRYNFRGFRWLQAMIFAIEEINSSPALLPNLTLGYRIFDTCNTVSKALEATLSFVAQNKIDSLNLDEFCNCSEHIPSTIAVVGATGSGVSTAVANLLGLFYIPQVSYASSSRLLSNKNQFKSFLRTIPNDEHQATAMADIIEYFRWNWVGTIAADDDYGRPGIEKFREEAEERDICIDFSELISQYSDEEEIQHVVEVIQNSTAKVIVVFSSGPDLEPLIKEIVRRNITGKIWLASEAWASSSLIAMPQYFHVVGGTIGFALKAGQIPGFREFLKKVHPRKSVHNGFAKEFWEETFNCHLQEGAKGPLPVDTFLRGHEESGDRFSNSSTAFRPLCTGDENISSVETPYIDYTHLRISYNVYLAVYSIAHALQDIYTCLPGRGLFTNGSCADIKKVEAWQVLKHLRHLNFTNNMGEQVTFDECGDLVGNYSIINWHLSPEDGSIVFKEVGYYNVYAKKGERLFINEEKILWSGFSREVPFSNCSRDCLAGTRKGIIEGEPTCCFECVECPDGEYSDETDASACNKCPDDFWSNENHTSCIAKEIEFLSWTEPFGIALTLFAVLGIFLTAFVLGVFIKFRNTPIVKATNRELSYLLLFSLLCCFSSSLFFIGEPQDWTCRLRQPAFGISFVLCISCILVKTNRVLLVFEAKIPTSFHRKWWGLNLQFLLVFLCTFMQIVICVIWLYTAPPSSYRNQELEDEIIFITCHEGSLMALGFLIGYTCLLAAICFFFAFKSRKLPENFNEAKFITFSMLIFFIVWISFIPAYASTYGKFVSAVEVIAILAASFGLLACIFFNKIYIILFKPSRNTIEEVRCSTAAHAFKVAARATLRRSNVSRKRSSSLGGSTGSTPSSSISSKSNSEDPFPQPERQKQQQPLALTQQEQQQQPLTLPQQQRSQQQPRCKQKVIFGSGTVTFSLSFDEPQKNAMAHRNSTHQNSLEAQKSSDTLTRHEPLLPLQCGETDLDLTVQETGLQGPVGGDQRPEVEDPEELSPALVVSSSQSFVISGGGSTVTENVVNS

For the compound `[Ca+2].[Cl-].[Cl-]` [Ca^++, calcium chloride], the “Ca^++ concentration at which activation of the receptor is maximal” value in assay [1] is listed as 5 mM. The “Accumulation of mononuclear cells staining positive for Mac-1 at injection site” value in assay [2] was “Accumulation”. Further, in assay [3], the “Fluorescence intensity of anti-CD4 antibody staining” value is listed as “did not vary”. Further, in assay [4], the CXCR-4 expression result is recorded as “increased but did not achieve statistical significance”. For the same compound, the “CCR-5 median fluorescence intensity” value in assay [5] was “failed to demonstrate any change”. Besides, the “Transmigration to the Ca^++ gradient” value in assay [6] was “failed to transmigrate”. For the same compound, in assay [7], the “Cell surface CCR-2 expression” value is on record as “up-modulation”; the “Mean fluorescent intensity -CCR-2 Mean +/− s.e.m.” value is 278 +/− 39 and 296 +/− 35 and 307 +/− 35. Besides, in assay [8], the “Ca^++ concentration giving maximal chemotaxis” value is 4.5 mM and the “Ca^++ concentration giving peak migration in response to MCP-1” value was 4.5 mM.

The values are drawn from US7951364B2, “CaR receptor as a mediator of migratory cell chemotaxis and/or chemokinesis” (The General Hospital Corporation, priority 2000, dated 2011).
